Experiments:
[1] = test system: Cha o 1-specific T cell line; test: Reactivity of Cha o 1-specific T cell line; format: cell-based, human; details: from patients with hinoki pollinosis
Description: (§1) Two peptides (Cha o 1 #8-Cry j 1 #22 core, Cha o 1 #32-Cry j 1 #22 core) were synthesized by joining Peptide No. 8 (p71-90: […] SEQ ID NO. 11) which is a T cell epitope of hinoki pollen allergen Cha o 1 (Japanese Patent Application N. Hei. 8-15327), or Peptide No. 32 ([…]: […] SEQ ID NO. 12) to Cry j 1 #22 core sequence “FIKRVSNVI”(SEQ ID NO. 7) obtained in Example 14 using a peptide synthesizer (PSSM-8, Shimadzu Seisakusho Ltd.). An RR sequence was inserted between Cha o 1 #8 and Cry j 1 #22 core and between Cha o 1 #32 and Cry j 1 #22 core, that is, Cha o 1 #8-Cry j 1 #22 core (SEQ NO: 4) and Cha o 1 #32-Cry j 1 #22 core (SEQ NO: 5).
(§2) A Cry j 1-specific T cell line and a Cha o 1-specific T cell line were prepared from the patients with cedar pollinosis and hinoki pollinosis, respectively. […] However, these T cell lines all react with the multi-epitope peptide of SEQ NO: 4 and with the multi-epitope peptide of SEQ NO: 5.

[2] = test system: Cry j 1-specific T cell line; test: Reactivity of Cry j 1-specific T cell line; format: cell-based, human; details: from patients with cedar pollinosis
Description: as §1, §2

[3] = test system: T cell clone PJ7-9; test: Proliferation response and cytokine production of T cell clone PJ7-9 to analog peptides; format: cell-based, human; details: unsubstituted 13-residue peptide regarded as 100%
Description: Two clones, PJ7-9 and PB10-18, were employed to see if the activity of T cells can be altered by substituting the amino acids of T cell epitope peptide of the Cry j 1 #22 core. T cell clones PJ 7-9 and PB10-12 which react with Cry j 1 Peptide No. 22 p106-120 are restricted by DRB5*0101 and recognize the nine residues of the Cry j 1 #22 core. Each of the nine amino acids residues in the peptides p108-120 (VFIKRVSNVIIHG SEQ ID NO. 13) of 13 residues including the nine residues were substituted with an homologous amino acid and a non-homologous amino acid to produce analog peptides (FIGS. 17 and 18). The reactivity of T cell clones PJ 7-9 and PB 10-18 with these analog peptides was examined in terms of the uptake of [^3H] thymidine. The concentration of cytokine in the reaction solution was measured using a cytokine assay kit manufactured by R & D Systems. The production of IFN-γ, IL-4, IL-2, and IL-5 in the supernatant and the uptake of [^3H] thymidine obtained by reacting the peptide of 13 residues with no amino acid substitution were regarded as 100%. […] Accordingly, the amino acids located in these positions are considered to be important for forming the complex of HLA and T cell receptor molecules via the peptide. […] For the PB 10-18 clone, the uptake of [3H] thymidine is suppressed by substitution of amino acid No. 1, 2, 3, 4, 6, 7, or 8 of Cry j 1 #22 core. The amino acids located in these positions are considered to be important for forming the complex of HLA and T cell receptor molecules via the peptide. It is further observed that the IL-2 production is suppressed by substitution of amino acid No. 6, 7, or 8, as compared to IL-5 production (FIG. 18).

[4] = test system: T cell clones; test: Recognizing the T cell epitopes in the multi-epitope peptide C.A.#4 by T cell clones; format: cell-based, human; details: C.A.#4 10 μg/ml
Method: The antigenic peptide constituting the multi-epitope peptide C.A.#4 obtained in Example 6 was examined to determine if the antigenic peptide actually functions as a T cell epitope.
On a 96-well micro culture plate, a mixture of 5×10^4 cells of the autologous B cell line previously treated with mitomycin C and 2×10^4 cells of the T cell clone was incubated for 2 days in 0.2 ml 15% serum-supplemented RPMI-1640 medium, together with, as an antigen, either 50 μg/ml of Cry j 1 and 2 μg/ml of Cry j 2, each antigenic peptide constituting the multi-epitope peptide C.A.#4 or 10 μg/ml C.A.#4 multi-epitope peptide produced by gene expression. After 0.5 μCi [^3H] thymidine was added to the medium, incubation was continued for a further 16 hours. After the cells were harvested on a glass filter using a cell harvester, the level of [^3H] thymidine taken up into the cells was determined using a liquid scintillation counter.

[5] = test system: peripheral lymphocytes; test: Proliferation response of peripheral lymphocytes induced by multi-epitope peptide; format: cell-based, human
Method: Peripheral lymphocytes derived from the patients with cedar pollinosis or from healthy subjects were suspended in RPMI-1640 culture medium supplemented with 10% human sera. The suspension was distributed in each well of a 96-well culture plate with a round bottom in a concentration of 2.5×10^5 cells/200 μl. The multi-epitope peptide represented by SEQ NO: 1, either Cry j 1 or Cry j 2, was added to each well to a final concentration of 0.001 to 20 μg/ml of the multi-epitope peptide, 50 μg/ml of Cry j 1 or 2 μg/ml of Cry j 2. The plate was incubated for 6 days. After 0.5 μCi [^3H] thymidine was added to the medium, incubation was continued for a further 16 hours. After the cells were harvested on a glass filter using a cell harvester, the level of [^3H] thymidine taken up into the cells was determined using a liquid scintillation counter.
Peripheral lymphocytes from 17 patients with cedar pollinosis and two healthy subjects were stimulated by 10 μg/ml of the multi-epitope peptide to evaluate T cell response. […] In the 17 patients, a maximum [^3H] thymidine uptake of 9,652 cpm was observed. When [^3H] thymidine uptake of peripheral lymphocytes without antigen stimulation is regarded as 1, the uptake of [^3H] thymidine by peripheral lymphocytes in the presence of an antigen is expressed by a stimulation index (SI). Upon identification of T cell epitopes, SI>2 is regarded to be positive. Similarly, SI>2 is judged to be proliferation responsive to the peptide. […] From the results, the peptide-based immunotherapy is effective when administered to 76.5% of the cedar pollinosis patients.

[6] = test system: human IgE antibody; test: Reactivity of the multi-epitope peptides with human IgE antibody (fluorescence plate assay); format: binding; details: 21 tested patients with cedar pollinosis
Method: The six multi-epitope peptides (C.A.#1 through C.A.#6) obtained in Example 6 were dissolved in 0.2 M acetate buffer solution (pH 4.5). The solution was dispensed in quantities of 0.1 ml/well in a black plate (manufactured by Dainihon Pharmaceutical Co., Ltd.) then allowed to stand at 4° C. overnight. After the antigen solution was removed, the wells were washed three times with a washing solution and the serum (4-fold dilution) from 29 patients with cedar pollinosis and healthy subjects were each added to separate wells. The system was then reacted at 37° C. for 4 hours. After the sera were removed, the wells were washed three times with a washing solution then reacted with anti-human IgE antibody (made by Pharmacia Inc.) at room temperature overnight. After washing three times with a washing solution, a substrate solution containing 0.1 mM 4-methylumbelliferyl-, β-D-galacto-pyranoside/0.01 M phosphate buffer (pH 7.0), 0.1 M NaCl, 1 mM MgCl2, 0.1% NaN, and 0.1% BSA was added, and the solution was incubated at 37° C. for 2 hours. A solution of 0.1 M glycine/NaOH (pH 10.3) was added to the wells to terminate the reaction. Fluorescent intensity was measured using a fluorophotometer (Labsystems). For positive control to each multi-epitope peptide, biotin-labeled rabbit anti-d epitope IgG and peroxidase-labeled streptoavidin (made by Pierce Inc.) were reacted.

SEQ NO: 5: Cha o 1 #32 joined to Cry j 1 #22 core with an RR sequence inserted (SSGKNEGTNIYNNNEAFKVERRFIKRVSNVI; listed as Cryptomeria japonica)
reactivity of Cha o 1-specific T cell line [1]: react with
reactivity of Cry j 1-specific T cell line [2]: react with

SEQ NO: 4: Cha o 1 #8 joined to Cry j 1 #22 core with an RR sequence inserted (IFSKNLNIKLNMPLYIAGNKRRFIKRVSNVI; listed as Cryptomeria japonica)
reactivity of Cha o 1-specific T cell line [1]: react with
reactivity of Cry j 1-specific T cell line [2]: react with

SIKRVSNVI (listed as Cryptomeria japonica) [Cry j 1 #22 core with the first amino acid F substituted with S]
IFN-γ production [3]: marked increase
IL-2 production [3]: marked increase
uptake of [3H] thymidine [3]: no change

SSGKNEGTNIYNNNEAFKVE [Cha o 1 #32]
reactivity of Cha o 1-specific T cell line [1]: reacts with
reactivity of Cry j 1-specific T cell line [2]: does not react with

IFSKNLNIKLNMPLYIAGNK [Cha o 1 #8]
reactivity of Cha o 1-specific T cell line [1]: reacts with
reactivity of Cry j 1-specific T cell line [2]: does not react with

FIKRVSNVI [Cry j 1 #22 core]
reactivity of Cha o 1-specific T cell line [1]: does not react with
reactivity of Cry j 1-specific T cell line [2]: reacts with

B1: a-Arg-Arg-b-Arg-Arg-d-Arg-Arg-e-Arg-Arg-c (peptide)
peptide: KSMKVTVAFNQFGPNRRPCVFIKRVSNVIIHGRRAPRDSPNTDGIDIFASKNFHRRKDIKLSDISLKLTSGKIASCRRPCQPHFTFKVDGIIA
notes: produced by gene expression
proliferation response of T cell clone PB14-19 (recognizes Cry j2 p341-355) [4]: somewhat weak
proliferation response of the T cell clones recognizing the respective epitope ([4]; clones PB8-3, PB8-34, PB4-22, PB14-5, PB14-3): comparable to that of each of the peptides

B2: SEQ NO: 1: multi-epitope peptide containing selected T cell epitopes of Cry j 1 and Cry j 2 joined via Arg-Arg (peptide, listed as Cryptomeria japonica)
chain: MKVTVAFNQFGPNRRVFIKRVSNVIIHGRRIDIFASKNFHLQKNTIGTGRRISLKLTSGKIASRRVDGIIAAYQNPASWK
patients with proliferation response (SI>2) ([5]; 13 out of the 17 patients, 10 μg/ml): 76.5%
maximum [3H] thymidine uptake ([5]; 17 patients, 10 μg/ml): 9,652 cpm
proliferation response of peripheral lymphocytes ([5]; one patient and two healthy subjects, 0.001 to 20 μg/ml): no proliferation response
patients whose peripheral lymphocytes showed proliferation response ([5]; six patients with cedar pollinosis, 0.001 to 20 μg/ml): five out of six
T cell proliferation response of peripheral lymphocytes from healthy subjects ([5]; two healthy subjects, 10 μg/ml): No response to T cell proliferation was observed

B3: SEQ NO: 2: joining p213-225 and p108-120 of Cry j 1, p182-200 and p79-98 of Cry j 2, p80-95 of Cry j 1, p66-80 of Cry j 1 (peptide, listed as Cryptomeria japonica)
chain: MKVTVAFNQFGPNRRVFIKRVSNVIIHGRRIDIFASKNFHLQKNTIGTGRRWKNNRIWLQFAKLTGFTLMGRRLKMPMYIAGYKTFDGRRVDGIIAAYQNPASWK
stimulation of peripheral lymphocyte samples ([5]; 21 tested patients with cedar pollinosis): stimulated all the peripheral lymphocyte samples
reaction with the IgE antibody of the patients [6]: did not react

Source: US6719976B1, “Peptide-based immunotherapeutic agent for treating allergic diseases” (Meiji Milk Products Co., Ltd., priority 1996, dated 2004)
